Test results reported in a melting point compilation (Tetko et al.; mined from patent text by program, amines drawn as free bases though some values may be those of a salt).

| Structure (SMILES) | melting point |
| --- | --- |
| COC(=O)c1ccc(CBr)c(OCC(=O)c2ccc(OC)c(C34CC5CC(CC(C5)C3)C4)c2)c1 | 165 °C |
| CC12C=CC(=O)C(N)=C1C=CC1C2CCC2(C)C(=O)CCC12 (centres undefined) | 206 to 208 °C |
| CC(C)(Oc1ccc(Cl)cc1)C(=O)OCc1ncc(C(=O)O)s1 | 124 °C |
| O=C(O)c1cn(C2CC2)c2c(C(F)(F)F)c(N3CCN(c4ncccn4)CC3)c(F)cc2c1=O | 285 to 287 °C |
| Cc1ccc(N2CN(C(C)(C)C)C3=NN=CC3=C2N)cc1 | 203 to 204 °C |
| CO/N=C(\C)[C@H]1CC[C@H]2[C@@H]3CC=C4C[C@@H](O)CC[C@]4(C)[C@H]3CC[C@]12C | 167 to 168 °C |
| CC1=C(C(=O)OCCOc2ccccc2)C(c2cccc(Cl)c2C)C2=C(CNCC2=O)N1 (centres undefined) | 233 to 235 °C |
| Clc1cccc(Nc2ncnc3[nH]nc(NCc4ccc5c(c4)OCO5)c23)c1 | 220 to 222 °C |
| O=C1OCCC12Sc1ccc([N+](=O)[O-])cc1C2=O (centres undefined) | 190 to 194 °C |
| CCOc1ccc(-n2c(Cl)ccc2-c2ccc(S(N)(=O)=O)cc2)cc1 | 124 to 125 °C |
| CC(C)Oc1cccc(C(=O)N2CCN(C(=O)CNC3CCN(Cc4ccccc4)CC3)C(c3ccc(Cl)c(Cl)c3)C2)c1 (racemic) | 58 to 61 °C |
| Oc1ccc(-c2cc3ccccc3[nH]2)cc1 | 224 to 229 °C |
| O=C(CN1CCCNC1=O)N1CCC(C2c3ncc(Br)cc3CCc3cc(Cl)cc(Br)c32)CC1 (single isomer, unassigned; (+)) | 155 to 156 °C |
| CCOC(=O)C(C#N)=C(SC)N1CCc2ccccc2CC1 | 88 to 93 °C |
| COc1cccc(CNC(=O)c2nc3scc(C(=O)NCc4ccc(C(=O)O)cc4)c3c(=O)[nH]2)c1 | 254 to 255 °C |
| O=C1N(CC2CCCO2)c2c(F)cccc2C12COc1cc3c(cc12)CCO3 (centres undefined) | 169 to 170 °C |
| O=C1C2=CSCCN2C(=O)N1c1cccc(Cl)c1F | 118 to 120 °C |
| COC=CC(C)(C)C(=O)Nc1ccc(Cl)cc1 | 93 °C |
| Cc1ccc(S(=O)(=O)C(C)(C)C(=O)C2CCCCC2)cc1 | 123 to 124 °C |
| Nc1nc(N)c(-c2ccc(Cl)cc2Cl)c(C=NO)n1 | 260 to 265 °C |
| CCCCNC(=O)Oc1cccc(NC(=O)CC(C)=O)c1 | 112 °C |
| N#Cc1cccc(C(=O)Nc2cccc(-n3nc(C(F)(F)F)cc3C(F)(F)F)c2)c1 | 160 to 161 °C |
| C#CCN(c1ccc(C(=O)NCc2cccc(C#N)c2)cc1)C1CCc2cc3nc(C)[nH]c(=O)c3cc21 (racemic) | 260 °C |
| CC(=O)N(C)c1cccc(S(=O)(=O)c2ccc(N)cc2)c1 | 178 to 180 °C |
| Cc1cc(SCCCSc2nnnn2C)nc(N)n1 | 119 to 120 °C |

| Structure (SMILES) | melting point |
| --- | --- |
| CCc1ccc(-c2cc3c(O)cccc3o2)s1 | 87 to 90 °C |
| CN=C1SCN(Cc2ccccc2)C(=O)N1C | 93 to 95 °C |
| CCCCCC1COc2cc(CCC3=Cc4cc(F)cc(F)c4OC3)c(F)cc2C1 (centres undefined) | 84 °C |
| CCCCCCCCCCCCCCCCOCC(CO)COC(C)=O (centres undefined) | 33 °C |
| COCn1ccnc1C(O)(c1ccccc1)c1ccc(Cl)cc1Cl (centres undefined) | 161 to 162 °C |
| COc1cc(Cl)c2c(c1)NC(=O)C(C)(c1ccc(Br)cc1)C2=O (centres undefined) | 239 to 240 °C |
| CC(C)=CC(=S)Nc1ccccc1 | 175 °C |
| COc1cc2c(cc1-c1cccnc1)-c1c(-c3cncs3)c3c(n1CC2)C(=O)N(C(C)(C)C)CCCOC3 | 200 to 201 °C |
| COc1cccc(C2(Cn3ccnc3)CC(CSc3ccc(C)cc3)ON2C)c1 (centres undefined) | 107 to 108 °C |
| Oc1ccc(OCCn2nc3c(n2)CCCC3)cc1 | 93 °C |
| O=[N+]([O-])c1cccc2c(Cl)c(Br)cnc12 | 135 to 136 °C |
| Clc1ccc2c(c1)Cn1cccc1C(C1CCN(CCc3ccccc3)CC1)O2 (centres undefined) | 145 to 147 °C |
| c1ccc(CSc2nc3cc4c(cc3[nH]2)OCCO4)nc1 | 155 to 156 °C |
| NS(=O)(=O)c1ccc(C(=O)c2ccc(O)cc2)s1 | 183 to 190 °C |
| CCOC(=O)c1cn2c(ccc3c(Cl)cccc32)n1 | 193 to 194 °C |
| COC(=O)c1ccc(OC)nc1SCc1ccccc1 | 67 to 71 °C |
| CC(=O)CN1CCc2c(c(=O)oc3cc(C)c(Cl)cc23)C1 | 172 to 175 °C |
| CN(C(=O)OC(C)(C)C)c1cnc(-c2ccc(Cl)nc2)s1 | 167 to 170 °C |
| O=c1n(-c2ccc(Cl)c(Cl)c2)c(=O)n(SC(Cl)(Cl)Cl)n1SC(Cl)(Cl)Cl | 167 °C |
| CCOC(=O)CCCOc1ccc([N+](=O)[O-])c(C=C2C(=O)NC(=O)N2C)c1 | 161 to 163 °C |
| O=C(O)C(Cc1ccccc1)c1ccc2ccn(Cc3ccccc3)c2c1 (centres undefined) | 148 to 150 °C |
| COc1cccc(-c2ccnc3c(C#N)cnn23)c1 | 165 to 166 °C |
| CC(C)(C)c1cc(C(C)(C)C)cc(C(C)(C)CC(=O)OP2(=O)Oc3c(cc(C(C)(C)C)cc3C(C)(C)C)Cc3cc(C(C)(C)C)cc(C(C)(C)C)c3O2)c1 | 188 °C |
| CC(=O)NC(n1cncn1)C(Cl)(Cl)CCl (centres undefined) | 135 °C |
| O=S(=O)(O)NCCC(F)(F)F | > 250 °C |

| Structure (SMILES) | melting point |
| --- | --- |
| Cc1ccc(OCn2c(-c3nonc3NCCC#N)nc3ccccc32)cc1C | 132 to 135 °C |
| CCC(=O)OCC=C(C)CCC=C(C)CCC=C(C)CCC=C(C)CCC=C(C)CCC=C(C)CCC=C(C)CCC=C(C)CCC=C(C)C | 33 to 35 °C |
| CC(=O)Nc1ccc(C=C(C#N)C(=O)OCC[Si](C)(C)C)cc1 | 136 °C |
| CCOC(=O)c1ccc(C2=CCCc3ccccc32)cc1 | 81 °C |
| Cc1ccc(S(=O)(=O)N2CCc3ccccc3C(Oc3cccc(C(F)(F)F)c3)C2)cc1 (centres undefined) | 112 to 114 °C |
| O=C1C2=C(SCCO2)C(O)N1c1ccc2ccc(Cl)cc2n1 (centres undefined) | 270 °C |
| Cc1ccc(S(=O)(=O)N2CCCC(CSc3ccccc3)C2)cc1 (centres undefined) | 66.7 °C |
| CCCc1nc2c(N)nc3ccccc3c2n1CCCCCC(=O)N1CCOCC1 | 149 to 151 °C |
| c1ccc(C2NCCc3c2[nH]c2ccccc32)cc1 (centres undefined) | 175 to 177 °C |
| CC1CC(=O)C=C(N)C1 (centres undefined) | 165 to 169 °C |
| N#Cc1ccccc1OCCCCCC(=O)O | 77 to 80 °C |
| CCCCCCCCSc1ccc(C=Cc2ccc([N+](=O)[O-])cc2)cc1 | 53 °C |
| CC(=O)NC(=Cc1c[nH]c2cc(C)ccc12)C(=O)O | 204 to 206 °C |
| OC(Cc1ccc(Cl)cc1)(Cn1ccnc1)c1ccc(-c2ccccc2)cc1 (centres undefined) | 182 °C |
| Cc1ccc(Cn2ncnc2C(C)NS(=O)(=O)c2ccc(Cl)s2)cc1 (centres undefined) | 116 to 117 °C |
| O=C(Nc1ccc(C(=O)N2Cc3cccn3Cc3ccccc32)c(Cl)c1)c1ccccc1-c1cccs1 | 132 to 136 °C |
| Cc1cc(CO)ccn1 | 58 to 59 °C |
| Cc1cc(Nc2c3ccccc3nc3ccccc23)ccc1N | 256 to 257 °C |
| Cc1ccc(CCc2ccnc(N)c2N)cc1 | 119 to 121 °C |
| CC(=O)Nc1c(C(=O)c2ccccn2)[nH]c2cc(Cl)ccc12 | 211 to 212 °C |
| CC(c1ccncc1)C(O)(Cn1cncn1)c1ccc(F)cc1F (centres undefined) | 161 to 163 °C |
| Cc1ccc(NC(=O)c2ccccc2)c(C(=O)O)c1 | 205 to 208 °C |
| CCCCCCCCCCCCCCCCCCOc1cc(C(N)=O)cc(N(CC(=O)O)CC(=O)O)c1 | 213 to 216 °C |
| COc1ccc(C(=O)Nc2nc3ccc([N+](=O)[O-])cc3c(NCc3cccs3)c2C#N)cc1 | 217 to 220 °C |
| COC(=O)/C=C(\C)c1ccc(OCc2nc(-c3ccccc3)oc2C)cc1 | 125 to 126 °C |

| Structure (SMILES) | melting point |
| --- | --- |
| CC(=O)OCC1OC(n2cc(Cc3ccc(Br)cc3)c3c(C)cccc32)C(OC(C)=O)C(OC(C)=O)C1OC(C)=O (centres undefined) | 190 to 192 °C |
| CCc1c(CC(=O)NCCCCCCNC(=O)Cc2ccc(OC)cc2)ccc(OC)c1OC | 123 to 125 °C |
| Cc1ccc(-c2nc(C)c3ccccc3n2)nc1-c1ccccc1 | 141 to 143 °C |
| Cc1ccc(C(=O)c2ccc(C)cc2F)c(F)c1 | 84 to 85.5 °C |
| CCCCCCCCCCCCCCCCCc1nnc(CO)n1-c1sc(CC)cc1C(=O)c1ccc(C)cc1 | 68 to 69 °C |
| O=C(c1cccc2ccccc12)P1(=O)Oc2ccccc2-c2ccccc21 (centres undefined) | 149 to 151 °C |
| CNC(=O)N(O)C(C)C#CCCc1ccccc1 (centres undefined) | 121 to 123 °C |
| CC(=O)CC(O)c1ccc(-c2ccc(N3C[C@H](Cn4ccnn4)OC3=O)cc2F)cn1 (some centres undefined) | 130 to 135 °C |
| O=C(NC(Nc1c(Nc2cccnc2)c(=O)c1=O)C(F)(F)C(F)(F)F)c1cccc(Cl)c1 (centres undefined) | 212 to 213 °C |
| CC1(CNC(=O)OC(C)(C)C)CN(C(c2ccccc2)c2ccccc2)C1 | 106 to 107 °C |
| CC(C)(c1ccc(C(C)(C)c2ccc3ccccc3c2O)cc1)c1ccc2ccccc2c1O | 245 to 255 °C |
| O=C1c2ccccc2C(O)N1CCN1CCC(Cc2c[nH]c3ccc(F)cc23)CC1 (racemic) | 183 °C |
| NS(=O)(=O)CS(=O)(=O)c1ccc(S(=O)(=O)CCCO)cc1 | 200 °C |
| Cc1cn(C)c2c1N(C(=O)CCN1CCN(C)CC1)c1ccccc1NC2=O | 187 °C |
| CN(C)c1ncc(-c2cccc(N)c2)cn1 | 116 to 117 °C |
| OCC(CO)(c1ccccc1)c1ccccc1 | 102 to 104 °C |
| CN1CCN(C(=O)c2cn(C)nc2Nc2ccc(C(F)(F)F)cc2N)CC1 | 170 °C |
| CCc1cc(-c2c3ccccc3cc3oc(C)c(C)c23)cc(CC)c1OS(=O)(=O)c1ccc(C(=O)O)c(O)c1 | 222 to 227 °C |
| COc1cc(OC(=O)c2cc(O)c(O)c(O)c2)ccc1OC(=O)c1cc(O)c(O)c(O)c1 | 214 to 216 °C |
| CC#CCOc1ccc(S(=O)(=O)NC[C@@H](C(=O)NO)N2CCN(S(C)(=O)=O)CC2)cc1 | 150 °C |
| COCC(C#N)=Cc1ccc(OC)c(OC)c1 | 82 to 83 °C |
| CCCCCCCCCCOC(=O)Oc1ccc(-c2ccc(C#N)cc2)cc1 | 59.3 to 60 °C |
| COC(=O)N/C(=C\C[PH](=O)CO)C(=O)O (centres undefined) | 254 to 256 °C |
| C#CCOC(=O)C=C(C)C=CC=C(C)C=Cc1c(C)cc(OC)c(C)c1C | 94 to 95 °C |
